Reference: patent US12473291B2 (priority 2019, dated 2025)
Read-outs that look alike come from different tables or passages of the source.

Experiments:
KM mice = test: animal or person; assay type: in vivo; details: for ED50: KM mice (male, 18-22 g), injection via the tail vein, disappearance of righting reflex; for 2ED50 duration / 2ED50 recovery time / Quality of recovery: KM mice; for 2ED50 duration / 2ED50 recovery time: single tail vein injection at 2×ED50; for 2ED50 duration: time from disappearance to recovery of righting reflex; for 2ED50 recovery time: time from recovery of righting reflex to free crawling; for Quality of recovery: tail vein injection; for duration and recovery time compared with remimazolam / effective dose compared with remimazolam: mice, tail vein, in words
SD rats = test: animal or person; assay type: in vivo; details: for ED50: SD rats (male, 220-300 g), injection via the tail vein, disappearance of righting reflex; for 2ED50 duration / 2ED50 recovery time / Quality of recovery: SD rats; for 2ED50 duration / 2ED50 recovery time: single tail vein injection at 2×ED50; for 2ED50 duration: time from disappearance to recovery of righting reflex; for 2ED50 recovery time: time from recovery of righting reflex to free crawling; for Quality of recovery: tail vein injection; for duration and recovery time compared with remimazolam / effective dose compared with remimazolam: rats, tail vein, in words
[1] = Rattus norvegicus, read-out: ED50

SMILES | ED50 (KM mice) | 2ED50 duration (KM mice) | 2ED50 recovery time (KM mice) | Quality of recovery (KM mice) | ED50 (SD rats) | 2ED50 duration (SD rats) | 2ED50 recovery time (SD rats) | Quality of recovery (SD rats) | ED50 (KM mice; Mus musculus, read-out: ED50) | duration and recovery time compared with remimazolam (KM mice) | effective dose compared with remimazolam (KM mice) | ED50 (SD rats; [1]) | duration and recovery time compared with remimazolam (SD rats) | effective dose compared with remimazolam (SD rats)
COC(=O)C(C)(C)OC(=O)CC[C@@H]1N=C(c2ccccn2)c2cc(Cl)c(Cl)c(Cl)c2-n2c(C)cnc21 [Example 30] | 30.2 mg/kg | 4.04 min | 1.59 min | ++ (“++” means 1-3 min) | 6.2 mg/kg | 3.01 min | 2.51 min | ++ (“++” means 1-3 min) | – | – | – | – | – | –
Cc1cnc2n1-c1c(Cl)c(Cl)c(Cl)c(Cl)c1C(c1ccccn1)=N[C@H]2CCC(=O)OCOC(=O)OC(C(C)C)C(C)C [Example 31] | – | 2.13 min | 1.04 min | ++ (“++” means 1-3 min) | – | 1.23 min | 1.14 min | + (“+” means <1 min) | 17.3 mg/kg | significantly shorter | significantly lower | 2.3 mg/kg | significantly shorter | significantly lower
Cc1cnc2n1-c1cc(C(F)(F)F)c(Cl)cc1C(c1cccnc1)=N[C@H]2CCC(=O)OCOC(=O)OC(C)C [Example 32] | – | 4.34 min | 2.01 min | ++++ (“++++” means 5-10 min) | – | 3.34 min | 2.41 min | +++ (“+++” means 3-5 min) | 31.1 mg/kg | – | – | 3.1 mg/kg | – | –
Cc1cnc2n1-c1cc(Br)c(Cl)cc1C(c1ccncc1)=N[C@H]2CCC(=O)OCOC(=O)OC(C)(C)C [Example 33] | – | 3.21 min | 1.48 min | ++ (“++” means 1-3 min) | – | 3.51 min | 2.38 min | +++ (“+++” means 3-5 min) | 21.2 mg/kg | – | – | 6.2 mg/kg | – | –
COC(=O)OCOC(=O)CC[C@@H]1N=C(c2ccccn2)c2cc(Br)ccc2-n2c(C)cnc21 [Example 34] | – | 1.31 min | 1.23 min | – | – | 1.21 min | 1.01 min | + (“+” means <1 min) | 14.4 mg/kg | significantly shorter | significantly lower | 3.4 mg/kg | significantly shorter | significantly lower
CCOC(=O)OCOC(=O)CC[C@@H]1N=C(c2ccccn2)c2cc(Br)ccc2-n2c(C)cnc21 [Example 35] | – | 5.25 min | 2.02 min | +++ (“+++” means 3-5 min) | – | 3.20 min | 2.52 min | ++ (“++” means 1-3 min) | 25.2 mg/kg | – | – | 5.2 mg/kg | – | –
CCOC(=O)OCOC(=O)CC[C@@H]1N=C(c2ccccn2)c2ccc(Cl)cc2-n2c(C)cnc21 [Example 36] | – | 4.34 min | 1.49 min | +++ (“+++” means 3-5 min) | – | 3.14 min | 2.39 min | +++ (“+++” means 3-5 min) | 27.8 mg/kg | – | – | 2.8 mg/kg | – | –
CCOC(=O)COC(=O)CC[C@@H]1N=C(c2ccccn2)c2cccc(Cl)c2-n2c(C)cnc21 [Example 37] | – | 4.42 min | 1.58 min | ++ (“++” means 1-3 min) | – | 3.02 min | 2.51 min | ++ (“++” means 1-3 min) | 25.7 mg/kg | – | – | 5.7 mg/kg | – | –
CCOC(=O)COC(=O)CC[C@@H]1N=C(c2ccccn2)c2cc(Cl)ccc2-n2c(C)cnc21 [Example 38] | 25 mg/kg | 3.25 min | 1.25 min | ++ (“++” means 1-3 min) | 6.5 mg/kg | 4.05 min | 2.55 min | ++++ (“++++” means 5-10 min) | – | – | – | – | – | –
COC(=O)C1(OC(=O)CC[C@@H]2N=C(c3ccccn3)c3c(Cl)cc(C(F)(F)F)cc3-n3c(C)cnc32)CC1 [Example 39] | – | 5.09 min | 2.28 min | +++ (“+++” means 3-5 min) | – | 4.03 min | 2.48 min | ++ (“++” means 1-3 min) | 26.7 mg/kg | – | – | 6.7 mg/kg | – | –
COC(=O)C1(OC(=O)CC[C@@H]2N=C(c3ccccn3)c3cc(Cl)c(C(F)(F)F)cc3-n3c(C)cnc32)CC1 [Example 40] | 24.8 mg/kg | 4.26 min | 1.55 min | ++ (“++” means 1-3 min) | 6.8 mg/kg | 4.06 min | 2.01 min | ++ (“++” means 1-3 min) | – | – | – | – | – | –
COC(=O)C1(OC(=O)CC[C@@H]2N=C(c3ccccn3)c3ccc(C(F)(F)F)c(Cl)c3-n3c(C)cnc32)CC1 [Example 41] | – | 3.53 min | 1.57 min | ++ (“++” means 1-3 min) | – | 3.43 min | 2.47 min | ++ (“++” means 1-3 min) | 28.9 mg/kg | – | – | 5.9 mg/kg | – | –
CC(=O)O.COC(=O)C1(OC(=O)CC[C@@H]2N=C(c3ccccn3)c3cc(Cl)c(OC(F)(F)F)cc3-n3c(C)cnc32)CC1 [Example 42] | 8.7 mg/kg | 0.58 min | 0.53 min | + (“+” means <1 mm) | 4.7 mg/kg | 0.51 min | 0.31 min | + (“+” means <1 min) | – | significantly shorter | significantly lower | – | significantly shorter | significantly lower
COC(=O)C1(OC(=O)CC[C@@H]2N=C(c3ccccn3)c3c(Cl)cc(OC(F)(F)F)cc3-n3c(C)cnc32)CC1.O=C(O)O [Example 43] | 29.5 mg/kg | 6.01 min | 2.13 min | ++++ (“++++” means 5-10 min) | 6.5 mg/kg | 3.01 min | 2.41 min | ++ (“++” means 1-3 min) | – | – | – | – | – | –
COC(=O)C1(OC(=O)CC[C@@H]2N=C(c3ccccn3)c3cc(Cl)c(Br)cc3-n3c(C)cnc32)CC1 [Example 45] | – | 2.20 min | 1.53 min | ++++ (“++++” means 5-10 min) | – | 3.01 min | 2.00 min | ++ (“++” means 1-3 min) | 30 mg/kg | – | – | 7.1 mg/kg | – | –
